Source: patent publication US20230242530A1, “8-(AZETIDIN-1-YL)-[1,2,4]TRIAZOLO[1,5-A]PYRIDINYL COMPOUNDS, COMPOSITIONS AND METHODS OF USE THEREOF” (Genentech, Inc., priority 2016, published 2023)

Experiments:
[1] = biological target: T1, isolated recombinant JAK2 kinase domain (Homo sapiens, UniProt O60674); assay: JAK enzyme assay, JAK2 kinase domain (Caliper LabChip); type: biochemical; conditions: 0.2 nM JAK2, ATP 25 μM, Morrison tight binding model
T1 construct: isolated recombinant JAK1 and JAK2 kinase domain
T1 sequence (O60674 849-1124 limits assumed): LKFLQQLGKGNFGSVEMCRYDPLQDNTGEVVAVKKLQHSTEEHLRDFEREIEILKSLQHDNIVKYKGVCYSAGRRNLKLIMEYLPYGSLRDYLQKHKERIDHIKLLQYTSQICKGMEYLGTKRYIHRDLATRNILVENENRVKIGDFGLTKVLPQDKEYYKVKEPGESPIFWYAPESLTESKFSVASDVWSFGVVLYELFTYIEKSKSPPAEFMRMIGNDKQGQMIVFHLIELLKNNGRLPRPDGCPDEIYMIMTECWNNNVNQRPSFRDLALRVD
Procedure, shortened: (§1)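 Ki values were obtained by Morrison tight-binding analysis with ATP-competitive correction, Ki=Ki,app/(1+[ATP]/Km,app). Phosphorylated versus total fluorescent JAK3-derived peptide was quantified on a Caliper LabChip. Kinase reactions with the isolated recombinant domains ran 30 min at 22 °C before EDTA quench (50 mM final).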

[2] = biological target: T2, isolated recombinant JAK1 kinase domain (Homo sapiens, UniProt P23458); assay: JAK enzyme assay, JAK1 kinase domain (Caliper LabChip); type: biochemical; conditions: 1.5 nM JAK1, ATP 25 μM, Morrison tight binding model
T2 construct: isolated recombinant JAK1 and JAK2 kinase domain
T2 sequence (P23458 875-1153 limits assumed): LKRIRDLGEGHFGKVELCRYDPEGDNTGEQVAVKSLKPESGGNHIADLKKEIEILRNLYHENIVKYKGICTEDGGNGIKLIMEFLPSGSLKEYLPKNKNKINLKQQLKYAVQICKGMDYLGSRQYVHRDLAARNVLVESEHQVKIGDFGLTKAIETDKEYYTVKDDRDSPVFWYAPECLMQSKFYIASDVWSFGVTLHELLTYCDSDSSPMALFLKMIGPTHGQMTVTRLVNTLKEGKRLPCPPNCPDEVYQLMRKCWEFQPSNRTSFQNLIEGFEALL
Procedure, shortened: as §1

[3] = tested on: JAK1-dependent STAT6 phosphorylation downstream of IL-13 stimulation in BEAS-2B cells; assay: JAK1 pathway assay in cell lines: IL-13 p-STAT6 BEAS-2B; type: cell-based; conditions: BEAS-2B human bronchial epithelial cells, 1 hr compound, IL-13 15 min, MSD readout
Procedure, shortened: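 Phospho-STAT6 read by MSD electrochemiluminescence in lysates of BEAS-2B cells kept in complete growth medium. Cells were pretreated 1 hr at 37 °C with compound (0.2% DMSO final) and stimulated 15 min with IL-13 at its EC90; EC50 is the concentration halving signal versus DMSO.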

Row | SMILES | Ki [1] [nM] | Ki [2] [nM] | EC50 [3] [nM]
1 | CN1CCN(C(=O)Cn2cc(Nc3nc4c(N5CC(CC#N)(n6cc(C#N)cn6)C5)cccn4n3)cn2)CC1 [Example 87, 1-[3-(cyanomethyl)-1-[2-[[1-[2-(4-methylpiperazin-1-yl)-2-oxo-ethyl]pyrazol-4-yl]amino]-[1,2,4]triazolo[1,5-a]pyridin-8-yl]azetidin-3-yl]pyrazole-4-carbonitrile] | 0.7 | 0.2 | 17
2 | CCc1cnn(C2(CC#N)CN(c3cccn4nc(Nc5ccc(C(=O)N(C)CC6CCN(C7COC7)CC6)cc5)nc34)C2)c1 [Example 88, 4-[[8-[3-(cyanomethyl)-3-(4-ethylpyrazol-1-yl)azetidin-1-yl]-[1,2,4]triazolo[1,5-a]pyridin-2-yl]amino]-N-methyl-N-[[1-(oxetan-3-yl)-4-piperidyl]methyl]benzamide] | 1 | 0.4 | 35
3 | CSc1cccc(C2(CC#N)CN(c3cccn4nc(Nc5cnn(CC(=O)N6CCC(N7CCOCC7)CC6)c5)nc34)C2)c1 [Example 90, 2-[3-(3-methylsulfanylphenyl)-1-[2-[[1-[2-(4-morpholino-1-piperidyl)-2-oxo-ethyl]pyrazol-4-yl]amino]-[1,2,4]triazolo[1,5-a]pyridin-8-yl]azetidin-3-yl]acetonitrile] | 0.2 | 0.4 | 22
4 | CCc1cnn(C2(CC#N)CN(c3cccn4nc(Nc5ccc(C(=O)N6CCN(C)CC6)c(F)c5)nc34)C2)c1 [Example 91, 2-[3-(4-ethylpyrazol-1-yl)-1-[2-[3-fluoro-4-(4-methylpiperazine-1-carbonyl)anilino]-[1,2,4]triazolo[1,5-a]pyridin-8-yl]azetidin-3-yl]acetonitrile] | 0.9 | 0.4 | 213
5 | CCc1cnn(C2(CC#N)CN(c3cccn4nc(Nc5ccc(C(=O)N6CCN(C)CC6)c(C)c5)nc34)C2)c1 [Example 92, 2-[3-(4-ethylpyrazol-1-yl)-1-[2-[3-methyl-4-(4-methylpiperazine-1-carbonyl)anilino]-[1,2,4]triazolo[1,5-a]pyridin-8-yl]azetidin-3-yl]acetonitrile] | 1.7 | 0.4 | 19
6 | N#CCC1(c2cccc(Cl)c2)CN(c2cccn3nc(Nc4cnn(CC(=O)N5CCC(NC6COC6)CC5)c4)nc23)C1 [Example 93, 2-[3-(3-chlorophenyl)-1-[2-[[1-[2-[4-(oxetan-3-ylamino)-1-piperidyl]-2-oxo-ethyl]pyrazol-4-yl]amino]-[1,2,4]triazolo[1,5-a]pyridin-8-yl]azetidin-3-yl]acetonitrile] | 0.7 | 0.4 | 79
7 | COCCN1CCN(C(=O)Cn2cc(Nc3nc4c(N5CC(CC#N)(n6cc(C(F)(F)F)cn6)C5)cccn4n3)cn2)CC1 [Example 94] | 1 | 0.3 | 54
8 | CC(=O)N1CCN(CC2CCN(C(=O)Cn3cc(Nc4nc5c(N6CC(CC#N)(c7cccc(Cl)c7)C6)cccn5n4)cn3)CC2)CC1 [Example 95, 2-[1-[2-[[1-[2-[4-[(4-acetylpiperazin-1-yl)methyl]-1-piperidyl]-2-oxo-ethyl]pyrazol-4-yl]amino]-[1,2,4]triazolo[1,5-a]pyridin-8-yl]-3-(3-chlorophenyl)azetidin-3-yl]acetonitrile] | 1.3 | 0.4 | 41
9 | N#CCC1(n2cc(C(F)(F)F)cn2)CN(c2cccn3nc(Nc4cnn(CC(=O)N5CCC(N6CCOCC6)CC5)c4)nc23)C1 [Example 96, 2-[1-[2-[[1-[2-(4-morpholino-1-piperidyl)-2-oxo-ethyl]pyrazol-4-yl]amino]-[1,2,4]triazolo[1,5-a]pyridin-8-yl]-3-[4-(trifluoromethyl)pyrazol-1-yl]azetidin-3-yl]acetonitrile] | 0.8 | 0.3 | 28
10 | N#CCC1(n2cc(C(F)(F)F)cn2)CN(c2cccn3nc(Nc4cnn(CC(=O)N5CCN(C6COC6)CC5)c4)nc23)C1 [Example 97, 2-[1-[2-[[1-[2-[4-(oxetan-3-yl)piperazin-1-yl]-2-oxo-ethyl]pyrazol-4-yl]amino]-[1,2,4]triazolo[1,5-a]pyridin-8-yl]-3-[4-(trifluoromethyl)pyrazol-1-yl]azetidin-3-yl]acetonitrile] | 0.8 | 0.5 | 51
11 | N#CCC1(n2cc(C(F)(F)F)cn2)CN(c2cccn3nc(Nc4cnn(CC(=O)N5CCN(C6CCOCC6)CC5)c4)nc23)C1 [Example 98, 2-[1-[2-[[1-[2-oxo-2-(4-tetrahydropyran-4-ylpiperazin-1-yl)ethyl]pyrazol-4-yl]amino]-[1,2,4]triazolo[1,5-a]pyridin-8-yl]-3-[4-(trifluoromethyl)pyrazol-1-yl]azetidin-3-yl]acetonitrile] | 0.8 | 0.5 | 32
12 | N#CCC1(c2cccc(Cl)c2)CN(c2cccn3nc(Nc4cnn(CC(=O)N5CCC(NCC6(C#N)CC6)CC5)c4)nc23)C1 [Example 99, 1-[[[1-[2-[4-[[8-[3-(3-chlorophenyl)-3-(cyanomethyl)azetidin-1-yl]-[1,2,4]triazolo[1,5-a]pyridin-2-yl]amino]pyrazol-1-yl]acetyl]-4-piperidyl]amino]methyl]cycl opropanecarbonitrile] | 4 | 2 | 71
13 | CN(CC1(C#N)CC1)C1CCN(C(=O)Cn2cc(Nc3nc4c(N5CC(CC#N)(c6cccc(Cl)c6)C5)cccn4n3)cn2)CC1 [Example 100, 1-[[[1-[2-[4-[[8-[3-(3-chlorophenyl)-3-(cyanomethyl)azetidin-1-yl]-[1,2,4]triazolo[1,5-a]pyridin-2-yl]amino]pyrazol-1-yl]acetyl]-4-piperidyl]-methyl-amino]methyl]cyclopropane carbonitrile] | 1.5 | 0.3 | 26
14 | CN1CCN(C(=O)Cn2cc(Nc3nc4c(N5CC(CC#N)(c6ccccc6)C5)cccn4n3)cn2)CC1 [Example 101] | 0.2 | 0.3 | 16
15 | CN1CCN(C(=O)Cn2cc(Nc3nc4c(N5CC(CC#N)(Cc6cccc(Cl)c6)C5)cccn4n3)cn2)CC1 [Example 102, 2-[3-[(3-chlorophenyl)methyl]-1-[2-[[1-[2-(4-methylpiperazin-1-yl)-2-oxo-ethyl]pyrazol-4-yl]amino]-[1,2,4]triazolo[1,5-a]pyridin-8-yl]azetidin-3-yl]acetonitrile] | 5.1 | 1.2 | 290
16 | N#CCC1(n2cc(C(F)(F)F)cn2)CN(c2cccn3nc(Nc4ccc(C(=O)N5CCN(C6COC6)CC5)cc4)nc23)C1 [Example 103, 2-[1-[2-[4-[4-(oxetan-3-yl)piperazine-1-carbonyl]anilino]-[1,2,4]triazolo[1,5-a]pyridin-8-yl]-3-[4-(trifluoromethyl)pyrazol-1-yl]azetidin-3-yl]acetonitrile] | 1.7 | 0.3 | 33
17 | CN1CCN(C(=O)Cn2cc(Nc3nc4c(N5CC(CC#N)(n6cc(NCC(F)(F)F)cn6)C5)cccn4n3)cn2)CC1 [Example 104] | 0.1 | 0.3 | 22
18 | CC(C)Sc1cnn(C2(CC#N)CN(c3cccn4nc(Nc5cnn(CC(=O)N6CCN(C)CC6)c5)nc34)C2)c1 [Example 105, 2-[3-(4-isopropylsulfanylpyrazol-1-yl)-1-[2-[[1-[2-(4-methylpiperazin-1-yl)-2-oxo-ethyl]pyrazol-4-yl]amino]-[1,2,4]triazolo[1,5-a]pyridin-8-yl]azetidin-3-yl]acetonitrile] | 1.6 | 0.7 | 42
19 | CCc1cnn(C2(CC#N)CN(c3cccn4nc(Nc5ccc(C(=O)N6CCN(C)CC6)c(OC)c5)nc34)C2)c1 [Example 106, 2-[3-(4-ethylpyrazol-1-yl)-1-[2-[3-methoxy-4-(4-methylpiperazine-1-carbonyl)anilino]-[1,2,4]triazolo[1,5-a]pyridin-8-yl]azetidin-3-yl]acetonitrile] | 1.3 | 0.5 | 40
20 | CC(C)(C#N)CCN1CCN(C(=O)Cn2cc(Nc3nc4c(N5CC(CC#N)(n6cc(C(F)(F)F)cn6)C5)cccn4n3)cn2)CC1 [Example 107, 4-[4-[2-[4-[[8-[3-(cyanomethyl)-3-[4-(trifluoromethyl)pyrazol-1-yl]azetidin-1-yl]-[1,2,4]triazolo[1,5-a]pyridin-2-yl]amino]pyrazol-1-yl]acetyl]piperazin-1-yl]-2,2-dimethyl-butanenitrile] | 1.1 | 0.4 | 44
21 | CN(CC(C)(C)C#N)C1CCN(C(=O)Cn2cc(Nc3nc4c(N5CC(CC#N)(n6cc(C(F)(F)F)cn6)C5)cccn4n3)cn2)CC1 [Example 108, 3-[[1-[2-[4-[[8-[3-(cyanomethyl)-3-[4-(trifluoromethyl)pyrazol-1-yl]azetidin-1-yl]-[1,2,4]triazolo[1,5-a]pyridin-2-yl]amino]pyrazol-1-yl]acetyl]-4-piperidyl]-methyl-amino]-2,2-dimethyl-propanenitrile;formic acid] | 0.4 | 0.6 | 37
